# According to article PMC10065799, “High-throughput profiling of sequence recognition by tyrosine kinases and SH2 domains using bacterial peptide display” (eLife, 2023):
# Assays:
# Experiment in all cases: pTyr-Var library bacterial peptide display kinase screen (enrichment scores)
# c-Abl kinase domain = target: T1, c-Abl kinase domain (Mus musculus, UniProt P00520); assay type: biochemical
# T1 sequence (P00520 242-493 limits assumed): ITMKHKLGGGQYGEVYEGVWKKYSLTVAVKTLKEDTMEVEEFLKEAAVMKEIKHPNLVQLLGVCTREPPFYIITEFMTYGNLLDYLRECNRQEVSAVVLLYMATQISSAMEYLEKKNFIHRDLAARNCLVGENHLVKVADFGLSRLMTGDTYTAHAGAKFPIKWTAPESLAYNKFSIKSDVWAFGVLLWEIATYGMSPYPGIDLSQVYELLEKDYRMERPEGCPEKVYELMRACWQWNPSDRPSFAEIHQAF
# c-Src kinase domain = c-Src kinase domain (Homo sapiens, UniProt P12931); assay type: biochemical; details: sheet "Src"
# Fer kinase domain = assay type: biochemical, mouse; details: sheet "Fer"
# EPHB2 kinase domain = assay type: biochemical, human; details: sheet EPHB2
# [1] = fig5-data2, sheet "Abl", Screen for the variant/reference peptide pair, pTyr-Var library
# [2] = variant peptide versus its reference peptide in the pTyr-Var library screen
# [3] = value of the variant peptide against its reference peptide in the pTyr-Var library screen with Fer
# [4] = sheet "Abl", effect of variant peptide relative to its reference peptide in pTyr-Var library screen (enrichment)
# [5] = effect of the variant peptide relative to its reference peptide in the pTyr-Var library screen
# [6] = effect of variant peptide relative to its reference peptide in the pTyr-Var library screen (enrichment scores)
# [7] = variant peptide relative to its reference peptide, pTyr-Var library screen enrichment
# 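Note: log2 fold change in enrichment of variant over reference.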
sequence,measurement,setting,value
AALLNYKAGRD [GRIN2A_Y737_V734L],Screen,c-Abl kinase domain; [1],-0.3155
ACEVLYNIVFM [NCF2_Y125_A128V],Screen,c-Src kinase domain; [2],0.004351
same,Screen,Fer kinase domain; [3],0.5953
ADDSFYTVRSA [ZAP70_Y493_A495V_YF],Screen,c-Src kinase domain; [2],1.093
same,Screen,c-Abl kinase domain; [4],-3.301
AEDKPYAELWT [MPI_Y46_M51T],Screen,c-Src kinase domain; [5],-0.4439
same,Screen,Fer kinase domain; [3],-0.5845
AHARMYGVLPW [PLP1_Y207_D203H],Screen,c-Src kinase domain; [2],-1.491
same,Screen,EPHB2 kinase domain; [6],-2.408
AKKMKYFEGVS [PRKDC_Y682_I680M],Screen,c-Abl kinase domain; [1],0.9485
CEAIEYLESKQ [BTK_Y511_M509I],Screen,c-Abl kinase domain; [1],1.454
CENCHYPILPL [LCK_Y25_V28L],Screen,c-Abl kinase domain; [1],0.2762
CKSIHYDLVFL [COL22A1_Y37_V35I],Screen,Fer kinase domain; [3],-0.07246
DFFDLYGGKKF [PTPN11_Y66_E69K_YF],Screen,c-Src kinase domain; [2],0.3147
DGQFVYKLTDF [TBK1_Y153_S151F],Screen,c-Src kinase domain; [2],-0.3973
DRLTVYIDRVR [LMNA_Y45_A43T],Screen,c-Abl kinase domain; [1],-0.2946
DRQASYLDKVR [KRT17_Y98_L95Q],Screen,c-Abl kinase domain; [1],2.325
EAAFVYVISSA [WNT4_Y113_A114V],Screen,c-Src kinase domain; [2],-2.147
same,Screen,c-Abl kinase domain; [4],1.673
EACPSYSHVVL [CHST6_Y168_R166P],Screen,Fer kinase domain; [3],2.885
EGTATYAAAIL [JUP_Y644_V648I],Screen,Fer kinase domain; [3],0.5368
same,Screen,EPHB2 kinase domain; [6],0.4332
FDNPIYQKTTE [LDLR_Y828_V827I],Screen,c-Abl kinase domain; [1],2.749
same,Screen,Fer kinase domain; [3],1.939
FFLGAYDRFLP [SLC22A5_Y486_V481F_YF],Screen,c-Src kinase domain; [2],-0.1466
same,Screen,c-Abl kinase domain; [4],-0.3891
same,Screen,EPHB2 kinase domain; [6],-0.4331
FGCGMYSHLQG [LGR4_Y848_D844G_YF],Screen,c-Src kinase domain; [5],-0.3661
same,Screen,Fer kinase domain; [3],-1.105
FIIFIYAMKKK [SLCO1B1_Y645_L643F_YF],Screen,c-Src kinase domain; [2],2.408
FISLIYTNFEV [GSTP1_Y109_A114V_YF],Screen,c-Src kinase domain; [5],0.2277
same,Screen,c-Abl kinase domain; [1],1.388
same,Screen,Fer kinase domain; [3],1.457
FKGIVYSVSSD [DCX_Y70_A71S],Screen,c-Abl kinase domain; [1],-0.3809
FLAVGYHMPHI [IDS_Y225_K227M],Screen,c-Abl kinase domain; [1],-0.568
FLENFYDLEKD [MMP3_Y42_K45E_YF],Screen,c-Src kinase domain; [5],0.2474
FSGQVYRQRRK [TH_Y230_D227G],Screen,c-Abl kinase domain; [4],0.751
FSTPPYLLEAA [BRIP1_Y921_S919P_YF],Screen,c-Src kinase domain; [5],-1.274
GEEIKYMLWLL [OTC_Y55_S60L],Screen,Fer kinase domain; [3],1.219
GESLTYVSTTF [C1orf162_Y120_A121V],Screen,c-Src kinase domain; [5],-2.006
GGSDCYGSLRP [MYLK_Y846_R845C],Screen,c-Src kinase domain; [2],2.609
GMKIVYVFVKK [DNAI2_Y5_E2K_YF],Screen,c-Abl kinase domain; [1],1.393
GQDLLYEDEDL [PACS1_Y303_F302L],Screen,Fer kinase domain; [3],0.4548
HFPDVYAWEQL [ALX3_Y181_R183W_YF],Screen,c-Src kinase domain; [5],2.591
same,Screen,Fer kinase domain; [3],4.265
HNQDDYSFPSR [LDLR_Y845_G844D_YF],Screen,EPHB2 kinase domain; [6],1.141
IGMLIYFARKA [VCAM1_Y718_I716L],Screen,EPHB2 kinase domain; effect of the variant relative to its reference peptide in the pTyr-Var library screen,-1.317
IVRSLYEDVED [VHL_Y185_L188V],Screen,c-Abl kinase domain; [4],2.296
same,Screen,Fer kinase domain; [7],0.543
KAWTIYHPEDS [ZBP1_Y165_R166H],Screen,c-Abl kinase domain; [4],3.304
KLSHLYQDHMQ [WNT5A_Y86_C83S],Screen,c-Abl kinase domain; [4],-1.969
KNKELYSDPFD [PDE10A_Y300_L303P],Screen,Fer kinase domain; [3],-1.007
LDFPEYNGVDR [CASQ1_Y43_D44N],Screen,c-Src kinase domain; [5],0.514
LERFIYNRQEF [HLA-DPB1_Y59_E62Q_YF],Screen,c-Src kinase domain; [5],-1.248
LESILYESSVV [TRPV4_Y91_T89I],Screen,c-Src kinase domain; [2],-0.6958
same,Screen,Fer kinase domain; [7],-0.3592
LFLALYTGLVR [PIGB_Y402_H407R],Screen,c-Src kinase domain; [2],-0.3512
LGKLTYPVGFW [NTHL1_Y177_I176T],Screen,EPHB2 kinase domain; [6],0.6291
LIGRGYDDPEV [HSPA9_Y128_R127G],Screen,EPHB2 kinase domain; [6],-1.099
LNPLIYTLRNA [OR4C46_Y285_K288R],Screen,c-Src kinase domain; [2],1.167
LRSRVYEVPVE [SLC26A3_Y756_N753S],Screen,Fer kinase domain; [7],-0.9023
same,Screen,EPHB2 kinase domain; [6],-0.8191
LSCLAYSGKDA [FXN_Y205_S202C],Screen,c-Abl kinase domain; [1],-1.545
LWKWRYEELKE [CCDC102B_Y299_K298R],Screen,c-Abl kinase domain; [1],0.5114
NCLRVYVAGRF [CRB1_Y711_E710V],Screen,c-Abl kinase domain; [1],-0.2235
NHFKIYNLFAE [PTEN_Y68_C71Y_YF],Screen,c-Src kinase domain; [2],-1.146
NHFKRYNLCAE [PTEN_Y68_I67R_YF],Screen,c-Src kinase domain; [2],-2.549
NNRVFYGNSDC [RS1_Y177_R182C],Screen,c-Abl kinase domain; [1],-1.349
PFQGAYLKINK [MYO1B_Y967_E969K],Screen,c-Abl kinase domain; [1],1.339
PGDGEYFTLQI [TP53_Y327_L323G],Screen,c-Src kinase domain; [2],0.07795
PIPIKYKAMKK [MYD88_Y257_L252P],Screen,c-Abl kinase domain; [1],-1.096
PLDEEYFTLQI [TP53_Y327_G325E],Screen,c-Src kinase domain; [2],-0.5709
same,Screen,c-Abl kinase domain; [4],-1.267
PLDGEYSTLQI [TP53_Y327_F328S],Screen,c-Src kinase domain; [2],-0.3767
same,Screen,Fer kinase domain; [7],1.6
PLDGEYVTLQI [TP53_Y327_F328V],Screen,c-Src kinase domain; [2],-2.053
same,Screen,c-Abl kinase domain; [4],-0.6513
PLDVEYFTLQI [TP53_Y327_G325V],Screen,c-Src kinase domain; [2],-0.5097
same,Screen,c-Abl kinase domain; [4],-0.7642
PLQKIYNFNVL [SLC4A1_Y553_T552I_YF],Screen,c-Src kinase domain; [2],2.735
PPDGEYFTLQI [TP53_Y327_L323P],Screen,c-Src kinase domain; [2],0.5031
PQIVNYSPDCI [LDHB_Y128_K127N],Screen,c-Abl kinase domain; [1],-0.6074
PSDLLYIPDIQ [ITGA2B_Y845_L847P],Screen,c-Src kinase domain; [5],-2.46
PVFEVYPLLNC [GATA1_Y78_Q76E],Screen,c-Abl kinase domain; [1],0.8954
PVQAAYQKVEA [HBB_Y131_V135E],Screen,c-Abl kinase domain; [1],-0.9436
QFKGKYLAKHN [CASK_Y712_D710G_YF],Screen,c-Abl kinase domain; [1],0.5412
QMVDMYASSFM [AVPR2_Y124_G122D_YF],Screen,c-Src kinase domain; [5],0.5236
QQIFTYDSGIH [JUP_Y22_T19I_YF],Screen,c-Abl kinase domain; [1],1.325
REGDKYVSHGA [ASS1_Y113_A111D],Screen,c-Abl kinase domain; [1],0.7285
RLLVVYTWTQR [HBB_Y36_P37T],Screen,c-Abl kinase domain; [1],0.544
RQNNSYTCFTA [SLC20A2_Y386_R382Q_YF],Screen,c-Src kinase domain; [2],-1.243
same,Screen,EPHB2 kinase domain; [6],-1.481
SDMGQYQCLVF [AXL_Y115_T112M],Screen,c-Src kinase domain; [5],0.2602
same,Screen,Fer kinase domain; [3],0.2934
SRNSKYNAEST [PSEN1_Y315_K311R],Screen,c-Abl kinase domain; [1],-1.342
STTSDYQWDFS [MTDH_Y364_V368F],Screen,c-Abl kinase domain; [1],-0.6152
SVETPYVSVTF [NDRG2_Y47_G48V],Screen,c-Src kinase domain; [2],-1.163
same,Screen,Fer kinase domain; [3],-1.711
SVMAEYGLFAA [VSX2_Y219_G223A_YF],Screen,c-Src kinase domain; [2],-0.3175
SVTCTYPPALN [TP53_Y126_S127P],Screen,c-Abl kinase domain; [4],1.141
TDGIAYEFRVT [TTN_Y22256_I22261T],Screen,c-Abl kinase domain; [4],-3.408
TEALFYTDDPA [ADPRS_Y75_T79P_YF],Screen,c-Abl kinase domain; [1],1.901
TESALYGCTIL [MAP3K21_Y724_V728I],Screen,c-Src kinase domain; [5],0.3601
same,Screen,Fer kinase domain; [3],-0.01841
TLLAFYMGNFS [GLB1_Y552_P549L],Screen,c-Abl kinase domain; [1],-0.5504
TVLEPYTDPFF [ZC3H18_Y367_A368T_YF],Screen,c-Abl kinase domain; [4],2.315
VEEDTYTMPST [PTK2_Y407_D402V],Screen,c-Src kinase domain; [2],0.7074
VGAKTYKMSMA [CPS1_Y309_A304V],Screen,c-Abl kinase domain; [1],0.4399
VIVRMYDFHVL [RPF2_Y109_G106V_YF],Screen,Fer kinase domain; [7],-0.9951
same,Screen,EPHB2 kinase domain; [6],1.263
VNFDFYTVNLG [GFPT1_Y367_D366Y_YF],Screen,c-Src kinase domain; [5],0.9419
VPHECYAKVFD [ALB_Y394_D389V],Screen,c-Abl kinase domain; [1],0.9527
VRFMAYTDETC [F8_Y450_F455C],Screen,c-Abl kinase domain; [1],1.283
VRHRHYKHTHE [CTCF_Y343_R342H],Screen,c-Abl kinase domain; [1],-0.4723
WAMPAYNRSKL [WWOX_Y293_L291P],Screen,c-Abl kinase domain; [4],4.174
WKEREYEVVRD [CPS1_Y634_I632R],Screen,EPHB2 kinase domain; [6],0.9502
